# Test results taken from ChEMBL document CHEMBL5316346, “Targeting Melanocortin Receptors Using SNAr-Type Macrocyclization: A Doubly Orthogonal Route to Cyclic Peptide Conjugates” (J Med Chem, 2023).
# Tests used:
# [1] = biological target: T1, Melanocyte-stimulating hormone receptor (Homo sapiens, UniProt Q01726); assay: Agonist activity at human MC1R stably expressed in human Flp-In-293 cells assessed as cAMP accumulation incubated for 45 mins in presence of IBMX by Lance Ultra cAMP assay; type: functional, cell-based
# Target sequence in this assay (Q01726 whole entry): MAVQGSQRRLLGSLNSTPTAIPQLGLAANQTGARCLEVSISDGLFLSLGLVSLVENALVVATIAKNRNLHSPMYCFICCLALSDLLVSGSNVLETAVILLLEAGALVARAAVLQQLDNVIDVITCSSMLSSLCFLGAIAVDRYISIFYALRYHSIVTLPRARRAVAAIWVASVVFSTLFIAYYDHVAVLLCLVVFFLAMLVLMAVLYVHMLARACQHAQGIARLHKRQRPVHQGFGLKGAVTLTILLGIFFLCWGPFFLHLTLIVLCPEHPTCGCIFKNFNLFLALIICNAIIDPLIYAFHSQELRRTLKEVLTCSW
# Melanocortin receptor 3 [2] = biological target: T2, Melanocortin receptor 3 (Homo sapiens, UniProt P41968); assay: Agonist activity at human MC3R stably expressed in human Flp-In-293 cells assessed as cAMP accumulation at 1 uM incubated for 45 mins in presence of IBMX by Lance Ultra cAMP assay; type: functional, cell-based; conditions: filed as agonist
# T2 sequence (P41968 whole entry): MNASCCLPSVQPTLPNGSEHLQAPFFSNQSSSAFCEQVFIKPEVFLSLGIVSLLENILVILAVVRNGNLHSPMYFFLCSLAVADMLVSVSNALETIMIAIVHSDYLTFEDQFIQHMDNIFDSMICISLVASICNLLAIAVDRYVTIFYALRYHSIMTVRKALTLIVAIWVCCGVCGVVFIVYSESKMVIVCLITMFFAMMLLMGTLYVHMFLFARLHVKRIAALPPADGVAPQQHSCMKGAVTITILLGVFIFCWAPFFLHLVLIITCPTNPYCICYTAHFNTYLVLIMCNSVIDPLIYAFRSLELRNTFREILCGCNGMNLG
# Melanocortin receptor 4 [3] = biological target: T3, Melanocortin receptor 4 (Homo sapiens, UniProt P32245); assay: Agonist activity at human MC4R stably expressed in human Flp-In-293 cells assessed as cAMP accumulation incubated for 45 mins in presence of IBMX by Lance Ultra cAMP assay; type: functional, cell-based
# T3 sequence (P32245 whole entry): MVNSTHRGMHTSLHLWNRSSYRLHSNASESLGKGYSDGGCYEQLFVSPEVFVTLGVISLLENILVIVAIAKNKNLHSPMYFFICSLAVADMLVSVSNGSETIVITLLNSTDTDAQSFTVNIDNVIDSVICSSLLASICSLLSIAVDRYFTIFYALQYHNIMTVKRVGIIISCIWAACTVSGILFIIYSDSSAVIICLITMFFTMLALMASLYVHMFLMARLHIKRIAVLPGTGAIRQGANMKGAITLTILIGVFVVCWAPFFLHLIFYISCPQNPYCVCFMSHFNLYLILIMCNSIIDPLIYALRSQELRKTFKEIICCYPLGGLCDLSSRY
# Melanocortin receptor 5 [4] = biological target: T4, Melanocortin receptor 5 (Homo sapiens, UniProt P33032); assay: Agonist activity at human MC5R stably expressed in human Flp-In-293 cells assessed as cAMP accumulation at 1 uM incubated for 45 mins in presence of IBMX by Lance Ultra cAMP assay; type: functional, cell-based
# T4 sequence (P33032 whole entry): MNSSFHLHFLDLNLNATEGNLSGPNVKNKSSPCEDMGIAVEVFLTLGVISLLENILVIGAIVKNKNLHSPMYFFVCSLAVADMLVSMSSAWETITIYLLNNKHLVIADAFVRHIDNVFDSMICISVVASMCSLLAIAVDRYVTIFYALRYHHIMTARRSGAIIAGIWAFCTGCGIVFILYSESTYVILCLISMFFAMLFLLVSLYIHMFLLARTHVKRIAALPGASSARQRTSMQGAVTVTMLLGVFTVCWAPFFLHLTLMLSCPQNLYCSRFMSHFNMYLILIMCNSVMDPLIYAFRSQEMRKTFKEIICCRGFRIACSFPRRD
# Melanocortin receptor 3 [5] = biological target: T2, Melanocortin receptor 3; assay: Agonist activity at human MC3R stably expressed in human Flp-In-293 cells assessed as cAMP accumulation incubated for 45 mins in presence of IBMX by Lance Ultra cAMP assay; type: functional, cell-based
# [6] = biological target: T1, Melanocyte-stimulating hormone receptor; assay: Displacement of sCy5-MT-I from human MC1R stably expressed in human HEK293 cells incubated for 2 hrs by Cheng-Prusoff equation based FACS analysis; type: cell-based
# Target sequence in this assay (Q01726 whole entry): as the sequence (Q01726 whole entry) above
# Melanocortin receptor 3 [7] = biological target: T2, Melanocortin receptor 3; assay: Displacement of sCy5-MT-I from human MC3R stably expressed in human HEK293 cells incubated for 2 hrs by Cheng-Prusoff equation based FACS analysis; type: cell-based
# Melanocortin receptor 4 [8] = biological target: T3, Melanocortin receptor 4; assay: Displacement of sCy5-MT-I from human MC4R stably expressed in human HEK293 cells incubated for 2 hrs by Cheng-Prusoff equation based FACS analysis; type: cell-based
# Melanocortin receptor 5 [9] = biological target: T4, Melanocortin receptor 5; assay: Displacement of sCy5-MT-I from human MC5R stably expressed in human HEK293 cells incubated for 2 hrs by Cheng-Prusoff equation based FACS analysis; type: cell-based
# Melanocortin receptor 5 [10] = biological target: T4, Melanocortin receptor 5; assay: Agonist activity at human MC5R stably expressed in human Flp-In-293 cells assessed as cAMP accumulation incubated for 45 mins in presence of IBMX by Lance Ultra cAMP assay; type: functional, cell-based
# [11] = biological target: T1, Melanocyte-stimulating hormone receptor; assay: Agonist activity at human MC1R stably expressed in human Flp-In-293 cells assessed as cAMP accumulation at 1 uM incubated for 45 mins in presence of IBMX by Lance Ultra cAMP assay; type: functional, cell-based; conditions: filed as agonist
# Target sequence in this assay (Q01726 whole entry, looked up): as the sequence (Q01726 whole entry) above
EC50 ([1]; read-out: EC50),EC50 ([1]; read-out: pEC50 (converted)),Activity (Melanocortin receptor 3 [2]),EC50 (Melanocortin receptor 4 [3]; read-out: EC50),Activity (Melanocortin receptor 5 [4]; filed as agonist),EC50 (Melanocortin receptor 3 [5]),EC50 (Melanocortin receptor 4 [3]; read-out: pEC50 (converted)),Activity (Melanocortin receptor 5 [4]),Ki [6],Ki (Melanocortin receptor 3 [7]),Ki (Melanocortin receptor 4 [8]; read-out: pKi (converted)),Ki (Melanocortin receptor 5 [9]),EC50 (Melanocortin receptor 5 [10]),Ki (Melanocortin receptor 4 [8]; read-out: Ki),Activity [11],Compound
24 nM,20.9 nM,73%,0.98 nM,64%,–,–,–,–,–,–,–,–,–,–,C[C@@H]1NC(=O)c2cc(NC(=S)Nc3ccc4c(c3)C(=O)OC43c4ccc(O)cc4Oc4cc(O)ccc43)ccc2SC[C@@H](C(N)=O)NC(=O)[C@H](Cc2c[nH]c3ccccc23)NC(=O)[C@H](CCCNC(=N)N)NC(=O)[C@@H](Cc2ccccc2)NC(=O)[C@H](Cc2c[nH]cn2)NC1=O
–,10 nM,–,–,–,50.1 nM,1.58 nM,17%,5.01 nM,97.7 nM,0.148 nM,> 1000 nM,–,–,–,C[C@H]1NC(=O)c2cc(N)ccc2SC[C@@H](C(N)=O)NC(=O)[C@H](Cc2c[nH]c3ccccc23)NC(=O)[C@H](CCCNC(=N)N)NC(=O)[C@@H](Cc2ccccc2)NC(=O)[C@H](Cc2c[nH]cn2)NC1=O
–,2.24 nM,–,–,–,34.7 nM,0.447 nM,–,3.39 nM,132 nM,0.457 nM,> 1000 nM,372 nM,–,–,C#Cc1ccc2c(c1)C(=O)N[C@H](C)C(=O)N[C@@H](Cc1c[nH]cn1)C(=O)N[C@H](Cc1ccccc1)C(=O)N[C@@H](CCCNC(=N)N)C(=O)N[C@@H](Cc1c[nH]c3ccccc13)C(=O)N[C@H](C(N)=O)CS2
–,4.79 nM,–,–,41%,91.2 nM,0.275 nM,–,3.55 nM,148 nM,0.162 nM,> 1000 nM,–,–,–,C[C@H]1NC(=O)c2cc(C(=N)N)ccc2SC[C@@H](C(N)=O)NC(=O)[C@H](Cc2c[nH]c3ccccc23)NC(=O)[C@H](CCCNC(=N)N)NC(=O)[C@@H](Cc2ccccc2)NC(=O)[C@H](Cc2c[nH]cn2)NC1=O
–,1.58 nM,–,–,–,200 nM,1 nM,15%,1.12 nM,79.4 nM,0.102 nM,> 1000 nM,–,–,–,C[C@H]1NC(=O)c2cc([N+](=O)[O-])ccc2SC[C@@H](C(N)=O)NC(=O)[C@H](Cc2c[nH]c3ccccc23)NC(=O)[C@H](CCCNC(=N)N)NC(=O)[C@@H](Cc2ccccc2)NC(=O)[C@H](Cc2c[nH]cn2)NC1=O
–,9.77 nM,–,–,–,31.6 nM,6.31 nM,5%,1.26 nM,7.94 nM,1.26 nM,> 1000 nM,–,–,–,C[C@@H]1NC(=O)[C@H](Cc2c[nH]c3ccccc23)NC(=O)[C@H](CCCNC(=N)N)NC(=O)[C@@H](Cc2ccccc2)NC(=O)[C@H](Cc2c[nH]cn2)NC(=O)c2cc([N+](=O)[O-])ccc2SC[C@@H](C(N)=O)NC1=O
–,50.1 nM,42%,–,60%,–,316 nM,–,269 nM,813 nM,0.331 nM,> 1000 nM,–,–,–,N=C(N)NCCC[C@@H]1NC(=O)[C@@H](Cc2ccccc2)NC(=O)[C@H](Cc2c[nH]cn2)NC(=O)c2cc(N)ccc2SC[C@@H](C(N)=O)NC(=O)[C@H](Cc2c[nH]c3ccccc23)NC1=O
–,2.69 nM,–,–,–,39.8 nM,0.501 nM,34%,3.8 nM,263 nM,0.141 nM,> 1000 nM,–,–,–,C[C@H]1NC(=O)c2cc(C#N)ccc2SC[C@@H](C(N)=O)NC(=O)[C@H](Cc2c[nH]c3ccccc23)NC(=O)[C@H](CCCNC(=N)N)NC(=O)[C@@H](Cc2ccccc2)NC(=O)[C@H](Cc2c[nH]cn2)NC1=O
–,63.1 nM,–,–,–,1260 nM,20 nM,11%,56.2 nM,513 nM,3.02 nM,> 1000 nM,–,–,–,C[C@@H]1NC(=O)c2cc([N+](=O)[O-])ccc2SC[C@@H](C(N)=O)NC(=O)[C@H](Cc2c[nH]c3ccccc23)NC(=O)[C@H](CCCNC(=N)N)NC(=O)[C@@H](Cc2ccccc2)NC(=O)[C@H](Cc2c[nH]cn2)NC1=O
–,1260 nM,–,–,–,5010 nM,501 nM,–,126 nM,316 nM,1.58 nM,> 1000 nM,–,–,–,NC(=O)[C@@H]1CSc2ccc([N+](=O)[O-])cc2C(=O)N[C@@H](Cc2cnc[nH]2)C(=O)N[C@H](Cc2ccccc2)C(=O)N[C@@H](CCCN=C(N)N)C(=O)N[C@@H](Cc2c[nH]c3ccccc23)C(=O)N1
–,16.6 nM,–,–,–,63.1 nM,0.135 nM,–,2.51 nM,174 nM,–,> 1000 nM,295 nM,0.06 nM,–,C[C@@H]1NC(=O)c2cc(-c3cn([C@@H]4O[C@H](CO)[C@@H](O)[C@H](O)[C@H]4O)nn3)ccc2SC[C@@H](C(N)=O)NC(=O)[C@H](Cc2c[nH]c3ccccc23)NC(=O)[C@H](CCCNC(=N)N)NC(=O)[C@@H](Cc2ccccc2)NC(=O)[C@H](Cc2c[nH]cn2)NC1=O
–,33.9 nM,–,–,–,7.94 nM,5.01 nM,1%,79.4 nM,437 nM,0.871 nM,> 1000 nM,–,–,–,C[C@H]1NC(=O)[C@H](Cc2c[nH]c3ccccc23)NC(=O)[C@H](CCCNC(=N)N)NC(=O)[C@@H](Cc2ccccc2)NC(=O)[C@H](Cc2c[nH]cn2)NC(=O)c2cc([N+](=O)[O-])ccc2SC[C@@H](C(N)=O)NC1=O
–,–,44%,–,–,–,63.1 nM,0%,158 nM,661 nM,0.794 nM,> 1000 nM,–,–,58%,N#Cc1ccc2c(c1)C(=O)N[C@@H](Cc1c[nH]cn1)C(=O)N[C@H](Cc1ccccc1)C(=O)N[C@@H](CCCNC(=N)N)C(=O)N[C@@H](Cc1c[nH]c3ccccc13)C(=O)N[C@H](C(N)=O)CS2
–,34.7 nM,–,–,–,316 nM,89.1 nM,14%,64.6 nM,741 nM,0.234 nM,> 1000 nM,–,–,–,C#Cc1ccc2c(c1)C(=O)N[C@@H](Cc1c[nH]cn1)C(=O)N[C@H](Cc1ccccc1)C(=O)N[C@@H](CCCNC(=N)N)C(=O)N[C@@H](Cc1c[nH]c3ccccc13)C(=O)N[C@H](C(N)=O)CS2
–,–,–,–,–,–,–,3%,–,–,–,–,–,–,–,N=C(N)NCCC[C@@H]1NC(=O)[C@@H](Cc2ccccc2)NC(=O)[C@H](Cc2cnc[nH]2)NC(=O)c2cc([N+](=O)[O-])ccc2SC[C@@H](C(N)=O)NC(=O)[C@H](Cc2c[nH]c3ccccc23)NC1=O
